Source: patent publication US4016287A, “Dermatological compositions containing an acylamino-carboxylic acid or an alkyl ester thereof” (Boehringer Ingelheim GmbH, priority 1975, dated 1977)

Legend:
[1] = test system: dinitrochlorobenzene-eczema; test: antiphlogistic activity, dinitrochlorobenzene-eczema method; type: in vivo, guinea pigs; settings: Cavia porcellus, topical; ethanolic 5% solution on shaved flanks, 30 minutes before 1% dinitrochlorobenzene; visual evaluation after 22 hours; read-out: Inhibition of dinitrochlorobenzene-eczema over control
Protocol: The antiphlogistic activity was ascertained by the dinitrochlorobenzene-eczema method [see A. I. Scott, Brit. J. Dermatol. 77, 586 (1965)].
The compound to be tested was applied in the form of an ethanolic 5% solution to the shaved flanks of a group of 10 guinea pigs which has been sensitized with dinitrochlorobenzene. An analogous control group was treated with only ethanol. The treatment was effected 30 minutes prior to release of the allergic reaction with a 1% solution of dinitrochlorobenzene in acetone. The results were visually evaluated 22 hours thereafter.

[2] = test system: sebaceous gland excretion; test: sebaceous gland excretion-inhibiting activity, glass block method (refatting of forehead skin); type: in vivo, human; settings: ethanolic 5% solution, 0.25 ml on half of forehead; for Average extinction values, Difference: difference between treated and controls (ethanol); for Average extinction values, Treated: skin fat removed after 90 minutes, refatting measured after three additional hours, treated group
Protocol: The sebaceous gland excretion-inhibiting activity was ascertained by the glass block method described by Schaefer and Kuhn-Bussius in Arch. Klin. exper. Derm. 238, 429-435 (1970). Small glass blocks, the facets of which have been roughened or frosted, are pressed against the skin surface where the amount of skin fat is measured. The skin fat or sebum transferred from the skin to the glass facet makes the blocks more translucent, and the increase in translucence is directly proportional to the amount of sebum present in the skin area. The translucence is measured in a photometer. Prior to measurement of the degree of refating of the skin, the skin fat was removed with a plastic foil.
0.25 ml of an ethanolic 5% solution of the compound to be tested was applied to half of the forehead of 5 to 10 human test subjects, while 0.25 ml of ethanol was applied to half of the forehead of a group of 5 to 10 control subjects. After 90 minutes the skin fat was removed with the plastic foil, and after three additional hours the degree of refatting was determining with the aid of the small glass blocks referred to above.

[3] = acute toxicity, LD50 mouse i.p.; settings: in vivo, ip

CCCCCCCCCCCCCCCCOC(=O)CNC(C)=O [A, n-acetyl-glycine hexadecyl ester]
inhibition in vivo at 5 % [1]: 46% | Average extinction values, Difference [2]: 9.5 | Average extinction values, Treated [2]: 75.5

CCCCCCCCCCCCCCCCOC(=O)C(C)NC(C)=O (stereo not drawn) [B, n-acetyl-alanine hexadecyl ester]
inhibition in vivo at 5 % [1]: 19% | Average extinction values, Difference [2]: 7.5 | Average extinction values, Treated [2]: 74.0

CCCCCCCCCCCCCCCCOC(=O)CNC(=O)c1ccccc1 [Compound C, n-benzoyl-glycine hexadecyl ester]
inhibition in vivo at 5 % [1]: 28% | Average extinction values, Difference [2]: 16.5 | Average extinction values, Treated [2]: 78.5 | LD50 [3]: > 4000 mg/kg

CCCCCCCCCCCCCCCCOC(=O)CN(C)C(C)=O [D, n-acetyl-sarcosine hexadecyl ester]
inhibition in vivo at 5 % [1]: 20% | Average extinction values, Difference [2]: 9.0 | Average extinction values, Treated [2]: 86.5

CCCCCCCCCCCCCCCCOC(=O)CNC=O [F, n-formyl-glycine hexadecyl ester]
inhibition in vivo at 5 % [1]: 50%

CCCCCCCCCCCCCCCCOC(=O)CNC(=O)CC [G, n-propionyl-glycine hexadecyl ester]
inhibition in vivo at 5 % [1]: 34%

CCCCCCCCCCCCCC(=O)NCC(=O)O [H, n-tetradecanoyl-glycine]
inhibition in vivo at 5 % [1]: 38%

O=C(O)CCCNC(=O)c1ccc(-c2ccccc2)cc1 [I, n-(4'-phenyl-benzoyl)-4-amino-butyric acid]
inhibition in vivo at 5 % [1]: 36%

CCCCCCCCCCCCCCCCOC(=O)CCNC(C)=O [J, n-acetyl-β-alanine hexadecyl ester]
inhibition in vivo at 5 % [1]: 35%
